Measured values as given in patent US20260297081A1, “COMPOUNDS AND METHODS OF TREATING CANCERS” (Cullgen Inc., priority 2023, published 2026).

Target: CDK4 (Homo sapiens, UniProt P11802+Q16531)
Assay: CDK4 percentage degradation in Calu-1 cells (Table 6)
Format: cell-based
Design: Cells that express cyclin D1-3 and CDK4/6 proteins were treated with heterobifunctional compounds; endogenous in cells; host or cells: Calu-1
Settings: 16 hours; for inhibition at 0.04 µM: 40 nM; for inhibition at 0.2 µM: 200 nM
Summary of the method: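 Calu-1 cells exposed to heterobifunctional compounds at 40 nM or 200 nM for 16 h. Cyclin D1 and CDK4 levels measured by Western blot of RIPA lysates (BCA-normalised loading), bands quantified by densitometry and expressed as percentage degradation.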

Sequence of CDK4 (P11802 2-303 limits assumed): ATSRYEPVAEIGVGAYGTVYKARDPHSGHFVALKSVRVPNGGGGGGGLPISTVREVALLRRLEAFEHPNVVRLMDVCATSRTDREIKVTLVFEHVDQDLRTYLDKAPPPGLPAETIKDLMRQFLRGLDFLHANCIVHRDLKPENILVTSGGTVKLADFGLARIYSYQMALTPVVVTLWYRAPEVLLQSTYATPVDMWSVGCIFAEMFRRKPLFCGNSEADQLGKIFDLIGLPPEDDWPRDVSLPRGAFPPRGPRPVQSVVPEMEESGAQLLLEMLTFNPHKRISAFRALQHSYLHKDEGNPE
Sequence of CDK4 (P24385 whole entry partner): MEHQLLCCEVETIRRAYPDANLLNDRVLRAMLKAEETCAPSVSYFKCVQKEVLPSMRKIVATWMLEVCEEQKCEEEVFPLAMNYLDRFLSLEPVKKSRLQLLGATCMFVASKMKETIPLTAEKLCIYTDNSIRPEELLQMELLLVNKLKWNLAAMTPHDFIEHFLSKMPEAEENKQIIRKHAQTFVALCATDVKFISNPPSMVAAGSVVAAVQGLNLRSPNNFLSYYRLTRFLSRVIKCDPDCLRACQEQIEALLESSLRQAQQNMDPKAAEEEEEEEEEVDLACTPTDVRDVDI
Sequence of CDK4 (Q16531 2-1140 limits assumed): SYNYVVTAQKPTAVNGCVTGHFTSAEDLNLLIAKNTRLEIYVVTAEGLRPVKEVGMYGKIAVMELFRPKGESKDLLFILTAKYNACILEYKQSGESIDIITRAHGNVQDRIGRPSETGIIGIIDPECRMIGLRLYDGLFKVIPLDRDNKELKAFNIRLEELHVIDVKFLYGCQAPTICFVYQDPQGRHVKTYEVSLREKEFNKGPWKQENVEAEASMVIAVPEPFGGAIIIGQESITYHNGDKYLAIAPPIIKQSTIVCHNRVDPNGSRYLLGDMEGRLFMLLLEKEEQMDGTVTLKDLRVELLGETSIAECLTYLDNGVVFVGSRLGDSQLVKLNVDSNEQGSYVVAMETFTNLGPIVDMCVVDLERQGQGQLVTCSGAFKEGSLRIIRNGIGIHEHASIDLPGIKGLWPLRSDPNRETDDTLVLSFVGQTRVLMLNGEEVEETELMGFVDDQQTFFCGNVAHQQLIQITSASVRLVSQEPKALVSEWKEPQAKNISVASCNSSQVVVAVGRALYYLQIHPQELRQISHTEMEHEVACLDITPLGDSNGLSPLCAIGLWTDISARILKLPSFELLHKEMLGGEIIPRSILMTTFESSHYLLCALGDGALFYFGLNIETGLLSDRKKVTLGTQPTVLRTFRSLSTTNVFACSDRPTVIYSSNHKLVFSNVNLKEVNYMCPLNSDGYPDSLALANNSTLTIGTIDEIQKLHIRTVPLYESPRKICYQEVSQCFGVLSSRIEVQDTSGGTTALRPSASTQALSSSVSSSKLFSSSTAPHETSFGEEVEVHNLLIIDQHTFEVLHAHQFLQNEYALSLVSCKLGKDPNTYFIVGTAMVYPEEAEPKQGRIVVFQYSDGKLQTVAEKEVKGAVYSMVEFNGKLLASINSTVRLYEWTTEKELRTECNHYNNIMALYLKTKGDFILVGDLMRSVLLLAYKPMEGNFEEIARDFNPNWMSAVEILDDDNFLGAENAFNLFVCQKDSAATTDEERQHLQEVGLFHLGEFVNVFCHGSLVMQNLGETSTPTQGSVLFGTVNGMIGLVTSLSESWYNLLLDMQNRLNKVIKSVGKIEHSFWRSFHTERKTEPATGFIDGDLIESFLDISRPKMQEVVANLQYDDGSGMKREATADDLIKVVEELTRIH

Structure (SMILES): CNc1ccc(C(=O)Nc2ccc(N(C)C)nn2)c(NC[C@H]2CC[C@H](CCC(=O)N3CCN(c4ccc(Nc5ncc6c(C)c(C(C)=O)c(=O)n(C7CCCC7)c6n5)nc4)CC3)CC2)n1 [CPD-204, 2-(((trans-4-(3-(4-(6-((6-acetyl-8-cyclopentyl-S-methyl-7-oxo-7,8-dihydropyrido[2,3-d]pyrimidin-2-yl)amino)pyridin-3-yl)piperazin-1-yl)-3-oxopropyl)cyclohexyl)methyl)amino)-N-(6-(dimethylamino)pyridazin-3-yl)-6-(methylamino)nicotinamide]
- inhibition at 0.04 µM: < 30%
- inhibition at 0.2 µM: 50 to 80%

Structure (SMILES): CC(=O)c1c(C)c2cnc(Nc3ccc(N4CCN(CC(=O)NC5CC6(C5)CC(Nc5nc(C)ccc5C(=O)Nc5cn(C)c(C7CC7)n5)C6)CC4)cn3)nc2n(C2CCCC2)c1=O (centres unmarked) [CPD-207, 2-((6-(2-(4-(6-((6-acetyl-8-cyclopentyl-5-methyl-7-oxo-7,8-dihydropyrido[2,3-d]pyrimidin-2-yl)amino)pyridin-3-yl)piperazin-1-yl)acetamido)spiro[3.3]heptan-2-yl)amino)-N-(2-cyclopropyl-1-methyl-1H-imidazol-4-yl)-6-methylnicotinamide]
- inhibition at 0.04 µM: 30 to 50%
- inhibition at 0.2 µM: 50 to 80%

Structure (SMILES): CCc1ccc(C(=O)Nc2cc(C)n(C)n2)c(NC2CC(CNC(=O)CN3CCN(c4ccc(Nc5ncc6c(C)c(C(C)=O)c(=O)n(C7CCCC7)c6n5)nc4)CC3)C2)n1 (centres unmarked) [CPD-210, 2-((3-((2-(4-(6-((6-acetyl-8-cyclopentyl-5-methyl-7-oxo-7,8-dihydropyrido[2,3-d]pyrimidin-2-yl)amino)pyridin-3-yl)piperazin-1-yl)acetamido)methyl)cyclobutyl)amino)-N-(1,5-dimethyl-1H-pyrazol-3-yl)-6-ethylnicotinamide]
- inhibition at 0.04 µM: 30 to 50%
- inhibition at 0.2 µM: 50 to 80%

Structure (SMILES): CNc1ccc(C(=O)Nc2ccc(N(C)C)nn2)c(NC2CN(C(=O)CCCN3CCN(c4ccc(Nc5ncc6c(C)c(C(C)=O)c(=O)n(C7CCCC7)c6n5)nc4)CC3)C2)n1 [CPD-211, 2-((1-(4-(4-(6-((6-acetyl-8-cyclopentyl-5-methyl-7-oxo-7,8-dihydropyrido[2,3-d]pyrimidin-2-yl)amino)pyridin-3-yl)piperazin-1-yl)butanoyl)azetidin-3-yl)amino)-N-(6-(dimethylamino)pyridazin-3-yl)-6-(methylamino)nicotinamide]
- inhibition at 0.04 µM: 30 to 50%
- inhibition at 0.2 µM: 30 to 50%

Structure (SMILES): CC(=O)c1c(C)c2cnc(Nc3ccc(N4CCN(CC(=O)NCC5CC(Nc6nc(C(C)C)ccc6C(=O)Nc6cc(C)n(C)n6)C5)CC4)cn3)nc2n(C2CCCC2)c1=O (centres unmarked) [CPD-212, 2-((3-((2-(4-(6-((6-acetyl-8-cyclopentyl-5-methyl-7-oxo-7,8-dihydropyrido[2,3-d]pyrimidin-2-yl)amino)pyridin-3-yl)piperazin-1-yl)acetamido)methyl)cyclobutyl)amino)-N-(1,5-dimethyl-1H-pyrazol-3-yl)-6-isopropylnicotinamide]
- inhibition at 0.04 µM: 30 to 50%
- inhibition at 0.2 µM: 50 to 80%

Structure (SMILES): CC(=O)c1c(C)c2cnc(Nc3ccc(N4CCN(CC(=O)NCC5CC(Nc6nc(C7CC7)ccc6C(=O)Nc6cc(C)n(C)n6)C5)CC4)cn3)nc2n(C2CCCC2)c1=O (centres unmarked) [CPD-213, 2-((3-((2-(4-(6-((6-acetyl-8-cyclopentyl-5-methyl-7-oxo-7,8-dihydropyrido[2,3-d]pyrimidin-2-yl)amino)pyridin-3-yl)piperazin-1-yl)acetamido)methyl)cyclobutyl)amino)-6-cyclopropyl-N-(1,5-dimethyl-1H-pyrazol-3-yl)nicotinamide]
- inhibition at 0.04 µM: 30 to 50%
- inhibition at 0.2 µM: 50 to 80%

Structure (SMILES): CNc1ccc(C(=O)Nc2cc(C3CC3)on2)c(NC2CC3(CC(NC(=O)CN4CCN(c5ccc(Nc6ncc7c(C)c(C(C)=O)c(=O)n(C8CCCC8)c7n6)nc5)CC4)C3)C2)n1 (centres unmarked) [CPD-215, 2-((6-(2-(4-(6-((6-acetyl-8-cyclopentyl-5-methyl-7-oxo-7,8-dihydropyrido[2,3-d]pyrimidin-2-yl)amino)pyridin-3-yl)piperazin-1-yl)acetamido)spiro[3.3]heptan-2-yl)amino)-N-(5-cyclopropylisoxazol-3-yl)-6-(methylamino)nicotinamide]
- inhibition at 0.04 µM: < 30%
- inhibition at 0.2 µM: < 30%

Structure (SMILES): CNc1ccc(C(=O)Nc2ccc(N(C)C)nn2)c(NC2CC3(C2)CC(OC(C)(C)C(=O)N2CCN(c4ccc(Nc5ncc6c(C)c(C(C)=O)c(=O)n(C7CCCC7)c6n5)nc4)CC2)C3)n1 (centres unmarked) [CPD-216, 2-((6-((1-(4-(6-((6-acetyl-8-cyclopentyl-5-methyl-7-oxo-7,8-dihydropyrido[2,3-d]pyrimidin-2-yl)amino)pyridin-3-yl)piperazin-1-yl)-2-methyl-1-oxopropan-2-yl)oxy)spiro[3.3]heptan-2-yl)amino)-N-(6-(dimethylamino)pyridazin-3-yl)-6-(methylamino)nicotinamide]
- inhibition at 0.04 µM: 30 to 50%
- inhibition at 0.2 µM: 50 to 80%

Structure (SMILES): CNc1ccc(C(=O)Nc2ccc(OC)c(C)n2)c(NC2CC3(CC(NC(=O)CN4CCN(c5ccc(Nc6ncc7c(C)c(C(C)=O)c(=O)n(C8CCCC8)c7n6)nc5)CC4)C3)C2)n1 (centres unmarked) [CPD-220, 2-((6-(2-(4-(6-((6-acetyl-8-cyclopentyl-5-methyl-7-oxo-7,8-dihydropyrido[2,3-d]pyrimidin-2-yl)amino)pyridin-3-yl)piperazin-1-yl)acetamido)spiro[3.3]heptan-2-yl)amino)-N-(5-methoxy-6-methylpyridin-2-yl)-6-(methylamino)nicotinamide]
- inhibition at 0.04 µM: 30 to 50%
- inhibition at 0.2 µM: 50 to 80%

Structure (SMILES): [2H]C([2H])([2H])Nc1ccc(C(=O)Nc2cc(C)on2)c(NC2CC3(CC(NC(=O)CN4CCN(c5ccc(Nc6ncc7c(C)c(C(C)=O)c(=O)n(C8CCCC8)c7n6)nc5)CC4)C3)C2)n1 (centres unmarked) [CPD-225, 2-((6-(2-(4-(6-((6-acetyl-8-cyclopentyl-5-methyl-7-oxo-7,8-dihydropyrido[2,3-d]pyrimidin-2-yl)amino)pyridin-3-yl)piperazin-1-yl)acetamido)spiro[3.3]heptan-2-yl)amino)-6-((methyl-d3)amino)-N-(5-methylisoxazol-3-yl)nicotinamide]
- inhibition at 0.04 µM: 30 to 50%
- inhibition at 0.2 µM: 50 to 80%

Structure (SMILES): [2H]C([2H])([2H])Nc1ccc(C(=O)Nc2cccc(C)n2)c(NC2CC3(C2)CC(OC(C)(C)C(=O)N2CCN(c4ccc(Nc5ncc6c(C)c(C(C)=O)c(=O)n(C7CCCC7)c6n5)nc4)CC2)C3)n1 (centres unmarked) [CPD-226, 2-((6-((1-(4-(6-((6-acetyl-8-cyclopentyl-5-methyl-7-oxo-7,8-dihydropyrido[2,3-d]pyrimidin-2-yl)amino)pyridin-3-yl)piperazin-1-yl)-2-methyl-1-oxopropan-2-yl)oxy)spiro[3.3]heptan-2-yl)amino)-6-((methyl-d3)amino)-N-(6-methylpyridin-2-yl)nicotinamide]
- inhibition at 0.04 µM: < 30%
- inhibition at 0.2 µM: 30 to 50%

Structure (SMILES): CNc1ccc(C(=O)Nc2cc(C(C)C)on2)c(NC2CC3(CC(NC(=O)CN4CCN(c5ccc(Nc6ncc7c(C)c(C(C)=O)c(=O)n(C8CCCC8)c7n6)nc5)CC4)C3)C2)n1 (centres unmarked) [CPD-227, 2-((6-(2-(4-(6-((6-acetyl-8-cyclopentyl-5-methyl-7-oxo-7,8-dihydropyrido[2,3-d]pyrimidin-2-yl)amino)pyridin-3-yl)piperazin-1-yl)acetamido)spiro[3.3]heptan-2-yl)amino)-N-(5-isopropylisoxazol-3-yl)-6-(methylamino)nicotinamide]
- inhibition at 0.04 µM: < 30%
- inhibition at 0.2 µM: < 30%

Structure (SMILES): CNc1ccc(C(=O)Nc2cc(C)n(C)n2)c(NC2CCN(C(=O)CN3CCN(c4ccc(Nc5ncc6c(C)c(C(C)=O)c(=O)n(C7CCCC7)c6n5)nc4)CC3)CC2)n1 [CPD-228, 2-((1-(2-(4-(6-((6-acetyl-8-cyclopentyl-5-methyl-7-oxo-7,8-dihydropyrido[2,3-d]pyrimidin-2-yl)amino)pyridin-3-yl)piperazin-1-yl)acetyl)piperidin-4-yl)amino)-N-(1,5-dimethyl-1H-pyrazol-3-yl)-6-(methylamino)nicotinamide]
- inhibition at 0.04 µM: < 30%
- inhibition at 0.2 µM: 30 to 50%

Structure (SMILES): CNc1ccc(C(=O)Nc2cc(C)on2)c(NC2CCN(C(=O)CN3CCN(c4ccc(Nc5ncc6c(C)c(C(C)=O)c(=O)n(C7CCCC7)c6n5)nc4)CC3)CC2)n1 [CPD-229, 2-((1-(2-(4-(6-((6-acetyl-8-cyclopentyl-5-methyl-7-oxo-7,8-dihydropyrido[2,3-d]pyrimidin-2-yl)amino)pyridin-3-yl)piperazin-1-yl)acetyl)piperidin-4-yl)amino)-6-(methylamino)-N-(5-methylisoxazol-3-yl)nicotinamide]
- inhibition at 0.04 µM: 30 to 50%
- inhibition at 0.2 µM: 50 to 80%

Structure (SMILES): [2H]C([2H])([2H])Nc1ccc(C(=O)Nc2cc(C)n(C)n2)c(NC2CCN(C(=O)CN3CCN(c4ccc(Nc5ncc6c(C)c(C(C)=O)c(=O)n(C7CCCC7)c6n5)nc4)CC3)CC2)n1 [CPD-230, 2-((1-(2-(4-(6-((6-acetyl-8-cyclopentyl-5-methyl-7-oxo-7,8-dihydropyrido[2,3-d]pyrimidin-2-yl)amino)pyridin-3-yl)piperazin-1-yl)acetyl)piperidin-4-yl)amino)-N-(1,5-dimethyl-1H-pyrazol-3-yl)-6-((methyl-d3)amino)nicotinamide]
- inhibition at 0.04 µM: < 30%
- inhibition at 0.2 µM: 30 to 50%

Structure (SMILES): [2H]C([2H])([2H])Nc1ccc(C(=O)Nc2cc(C)on2)c(NC2CCN(C(=O)CN3CCN(c4ccc(Nc5ncc6c(C)c(C(C)=O)c(=O)n(C7CCCC7)c6n5)nc4)CC3)CC2)n1 [CPD-231, 2-((1-(2-(4-(6-((6-acetyl-8-cyclopentyl-5-methyl-7-oxo-7,8-dihydropyrido[2,3-d]pyrimidin-2-yl)amino)pyridin-3-yl)piperazin-1-yl)acetyl)piperidin-4-yl)amino)-6-((methyl-d3)amino)-N-(5-methylisoxazol-3-yl)nicotinamide]
- inhibition at 0.04 µM: 30 to 50%
- inhibition at 0.2 µM: 50 to 80%
